Source: patent US11319285B2, “N-acylated methionine sulfoxides as food flavouring compounds” (Givaudan S.A., priority 2015, dated 2022)

What was measured:
[1] = Expert taster comparison in a cheese onion crisp; conditions: 10 ppb in crisp with proprietary cheese onion powder flavoring @ 6%
Procedure: (§1) Samples were evaluated by expert tasters. Tasters were asked to describe the samples focusing on authentic taste, mouthfeel, fullness, salty-ness, salivation, umami, sweetness, juiciness, richness, long lastingness and fattiness
Comparison in a Cheese Onion Crisp
Base is a crisp with proprietary cheese onion powder flavoring @ 6%

[2] = Expert taster comparison in Campbell's French onion soup; conditions: 10 ppb in Campbell's French onion soup
Procedure: as §1
Base is Campbell's® French onion soup

[3] = Expert taster comparison in UNOX 'Franse uiensoep' onion soup; conditions: 10 ppb in UNOX 'Franse uiensoep'
Procedure: as §1
Base is UNOX ‘Franse uiensoep’

[4] = Expert taster comparison in a cheese sauce; conditions: 0.5 ppm in Maggie Saus Base with 0.05 g ethanol
Procedure: Samples were evaluated by expert tasters. Tasters were asked to describe the samples focusing on authentic taste, mouthfeel, fullness, salty-ness, salivation, umami, sweetness, juiciness, richness, long lastingness and fattiness.
Comparison in a Cheese Sauce
Base is a Maggie Saus Base with 0.05 g ethanol

Row | SMILES | taste description versus base [1] | taste description versus base [2] | taste description versus base [3] | taste description versus base [4]
1 | CCCCCCCC/C=C\CCCCCCCC(=O)N[C@@H](CC[S+](C)[O-])C(=O)O (stereo partly drawn) [Met-SO C18:1, (2S)-4-(methylsulfinyl)-2-oleamidobutanoic acid] | salt/taste level enhanced; onion character more fried | slightly stronger in salt; onion character slightly enhanced | slightly stronger in salt; onion character increased | –
2 | CCCCCCCC/C=C\CCCCCCCC(=O)N[C@H](C[S+](C)[O-])C(=O)O (stereo partly drawn) [(2S)-3-(methylsulfinyl)-2-oleamidopropanoic acid] | – | – | – | salt/umami/fullness/cheesiness level enhanced
